A value given as a limit tells only on which side of the number the result lay.

Test [1] concerns the target T1, full-length hepatitis C viral protein NS3•4A (Hepatitis C virus genotype 1a, UniProt P27958).
T1 construct: hexa-histidine (N); made in house; host or cells: Sf9 insect cells (baculovirus, pVL1392)
Kind of test: biochemical. Also noted: species or system HCV sub-type strain 1a. The conditions noted are these: Enzyme Assay 2 (HCV NS3 Peptide Cleavage Assay) activity, apparent Ki class.

The target of another test is T2, HCV NS3 protease domain (Hepatitis C virus genotype 1b, UniProt Q9WMX2).
T2 construct: The first 181 amino acids of NS3 (residues 1027-1207 of the viral polyprotein); hexa-histidine (C); made in house; host or cells: E. coli BL21/DE3 pLysS
As to the kind of experiment: biochemical. The note with it: Enzyme Assay 1 (HCV NS3 Protease Domain Peptide Cleavage Assay) activity, apparent Ki class.

For the molecule `CCC[C@H](NC(=O)[C@@H]1C[C@@]2(CC(c3cccc4cccnc34)=NO2)CN1C(=O)[C@@H](NC(=O)CC1CCCCC1)C(C)(C)C)C(=O)C(=O)NC1CC1` [Compound 31], the Ki in test [1] lay within 0.1 to 0.5 µM.

On to `CCC[C@H](NC(=O)[C@@H]1C[C@]2(CC(c3cc(Cl)cc(OC)c3Cl)=NO2)CN1C(=O)[C@@H](NC(=O)CC1CCCCC1)C(C)(C)C)C(=O)C(=O)NC1CC1` [Compound 38], for which the Ki in test [1] fell in the range of 0.1 to 0.5 µM.

Take `CCC[C@H](NC(=O)[C@@H]1C[C@]2(CC(c3cccc(Cl)c3)=NO2)CN1C(=O)[C@@H](NC(=O)CC1CCCCC1)C(C)(C)C)C(=O)C(=O)N1CC(OCC2CCOC2)C1` (some centres unmarked) [Compound 49]: the Ki in test [1] is under 0.1 µM.

As for `CCC[C@H](NC(=O)[C@@H]1C[C@]2(CC(c3cccc(Cl)c3)=NO2)CN1C(=O)[C@@H](NC(=O)[C@@H]1CCC(=O)N1Cc1cccc(C)c1)C(C)(C)C)C(=O)C(=O)NC1CC1` [Compound 518], the Ki on HCV NS3 protease domain is under 0.1 µM.

Turning to `CCC[C@H](NC(=O)[C@@H]1C[C@]2(CC(c3cc(C)cc(C)c3)=NO2)CN1C(=O)[C@@H](NC(=O)O[C@H]1CCOC1)C(C)(C)C)C(=O)C(=O)NC1CC1` [Compound 519], the Ki at HCV NS3 protease domain lay in the range of 0.1 to 0.5 µM.

As for `CCC[C@H](NC(=O)[C@@H]1C[C@]2(CC(c3ccccc3)=NO2)CN1C(=O)[C@@H](NC(=O)OCc1ccccc1)C(C)(C)C)C(=O)C(=O)NC1CC1` [Compound 520], the Ki on HCV NS3 protease domain was over 0.5 µM.

Turning to `CCC[C@H](NC(=O)[C@@H]1C[C@]2(CC(c3cccc(Cl)c3)=NO2)CN1C(=O)[C@@H](NC(=O)C1CCOCC1)C(C)(C)C)C(=O)C(=O)NC1CC1` [Compound 523], at HCV NS3 protease domain, the Ki was in the range of 0.1 to 0.5 µM.

For `CCC[C@H](NC(=O)[C@@H]1C[C@]2(CC(c3ccc(OC(F)(F)F)cc3)=NO2)CN1C(=O)O[C@H]1CCOC1)C(=O)C(=O)NC1CC1` [Compound 524], the Ki at HCV NS3 protease domain is over 0.5 µM.

`CCC[C@H](NC(=O)[C@@H]1C[C@]2(CC(c3cccc(OC)c3)=NO2)CN1C(=O)[C@@H](NC(=O)CC1CCOCC1)C(C)(C)C)C(=O)C(=O)NC1CC1` [Compound 525]: the Ki on HCV NS3 protease domain was over 0.5 µM.

For `CCC[C@H](NC(=O)[C@@H]1C[C@]2(CC(c3cccc(Cl)c3)=NO2)CN1C(=O)[C@@H](NC(=O)OCc1ccccc1)C(C)(C)C)C(=O)C(=O)NC1CC1` [Compound 526], the Ki on HCV NS3 protease domain was 0.1 to 0.5 µM.

For `CCC[C@H](NC(=O)[C@@H]1C[C@]2(CC(c3ccc4c(c3)OCO4)=NO2)CN1C(=O)[C@@H](NC(=O)O[C@H]1CCOC1)C(C)(C)C)C(=O)C(=O)NC1CC1` [Compound 527], on HCV NS3 protease domain, the Ki fell in the range of 0.1 to 0.5 µM.

In the case of `CCC[C@H](NC(=O)[C@@H]1C[C@]2(CC(c3cccc(Cl)c3)=NO2)CN1C(=O)[C@@H](NC(=O)CCn1ncc2ccccc21)C(C)(C)C)C(=O)C(=O)NC1CC1` [Compound 528], the Ki at HCV NS3 protease domain lay within 0.1 to 0.5 µM.

For `CCC[C@H](NC(=O)[C@@H]1C[C@]2(CC(c3ccc(O)cc3)=NO2)CN1C(=O)[C@@H](NC(=O)O[C@H]1CCOC1)C(C)(C)C)C(=O)C(=O)NC1CC1` [Compound 530], the Ki at HCV NS3 protease domain was over 0.5 µM.

`CCC[C@H](NC(=O)[C@@H]1C[C@]2(CC(c3cccc(Cl)c3)=NO2)CN1C(=O)[C@@H](NC(=O)CC(C)C)C(C)(C)C)C(=O)C(=O)NC1CC1` [Compound 532]: the Ki at HCV NS3 protease domain is over 0.5 µM.

Take `CCC[C@H](NC(=O)[C@@H]1C[C@]2(CC(c3ccc(F)cc3)=NO2)CN1C(=O)OCC1c2ccccc2-c2ccccc21)C(=O)C(=O)NC1CC1` [Compound 533]: on HCV NS3 protease domain, the Ki is over 0.5 µM.

Turning to `CCC[C@H](NC(=O)[C@@H]1C[C@]2(CC(C(=O)c3ccccc3)=NO2)CN1C(=O)[C@@H](NC(=O)O[C@H]1CCOC1)C(C)(C)C)C(=O)C(=O)NC1CC1` [Compound 535], at HCV NS3 protease domain, the Ki was in the range of 0.1 to 0.5 µM.

Consider `CCC[C@H](NC(=O)[C@@H]1C[C@]2(CC(c3ccc4c(c3)OCO4)=NO2)CN1C(=O)[C@@H](NS(=O)(=O)c1cccc2ccccc12)C(C)(C)C)C(=O)C(=O)NC1CC1` [Compound 536], for which the Ki on HCV NS3 protease domain was over 0.5 µM.

Regarding `CCC[C@H](NC(=O)[C@@H]1C[C@]2(CC(c3cccc(Cl)c3)=NO2)CN1C(=O)[C@@H](NC(=O)C(C)(C#N)Cc1ccccc1)C(C)(C)C)C(=O)C(=O)NC1CC1` (some centres unmarked) [Compound 538], the Ki on HCV NS3 protease domain was over 0.5 µM.

On to `CCC[C@H](NC(=O)[C@@H]1C[C@]2(CC(c3ccc(F)c(C)c3)=NO2)CN1C(=O)[C@@H](NC(=O)CC1CCOCC1)C(C)(C)C)C(=O)C(=O)NC1CC1` [Compound 539], for which the Ki at HCV NS3 protease domain lay within 0.1 to 0.5 µM.

Consider `CC(C)(C)NC(=O)N[C@H](C(=O)N1C[C@@]2(CC(c3cccc(Cl)c3)=NO2)C[C@H]1C(=O)NC(CC1CCC1)C(=O)C(=O)NC1CC1)C(C)(C)C` (some centres unmarked) [Compound 542], for which the Ki at HCV NS3 protease domain was under 0.1 µM.

As for `CCC[C@H](NC(=O)[C@@H]1C[C@]2(CC(c3ccc(C(=O)O)cc3)=NO2)CN1C(=O)[C@@H](NC(=O)O[C@H]1CCOC1)C(C)(C)C)C(=O)C(=O)NC1CC1` [Compound 543], the Ki on HCV NS3 protease domain is over 0.5 µM.

`CCC[C@H](NC(=O)[C@@H]1C[C@]2(CC(c3cccc(Cl)c3)=NO2)CN1C(=O)[C@@H](NC(=O)C(C)Cn1cnc2ccccc21)C(C)(C)C)C(=O)C(=O)NC1CC1` (some centres unmarked) [Compound 544]: the Ki on HCV NS3 protease domain was 0.1 to 0.5 µM.

`CCC[C@H](NC(=O)[C@@H]1C[C@]2(CC(c3ccc(F)c(C(F)(F)F)c3)=NO2)CN1C(=O)[C@@H](NC(=O)O[C@H]1CCOC1)C(C)(C)C)C(=O)C(=O)NC1CC1` [Compound 545]: the Ki on HCV NS3 protease domain is 0.1 to 0.5 µM.

For `CCC[C@H](NC(=O)[C@@H]1C[C@]2(CC(CC)=NO2)CN1C(=O)[C@@H](NC(=O)[C@@H](NC(=O)c1cnccn1)C1CCCCC1)C(C)(C)C)C(=O)C(=O)NC1CC1` [Compound 547], at HCV NS3 protease domain, the Ki is under 0.1 µM.

With `CCC[C@H](NC(=O)[C@@H]1C[C@]2(CC(c3cccc(Cl)c3)=NO2)CN1C(=O)[C@@H](NC(=O)[C@@H](CC(=O)N1CCCC1)C1CCCCC1)C(C)(C)C)C(=O)C(=O)NC1CC1` [Compound 549], on HCV NS3 protease domain, the Ki is under 0.1 µM.

With `CCC[C@H](NC(=O)[C@@H]1C[C@]2(CC(c3ccc4c(c3)CCO4)=NO2)CN1C(=O)[C@@H](NC(=O)CC1CCCCC1)C(C)(C)C)C(=O)C(=O)NC1CC1` [Compound 552], the Ki at HCV NS3 protease domain was in the range of 0.1 to 0.5 µM.

`CCC[C@H](NC(=O)[C@@H]1C[C@]2(CC(c3cccc(Cl)c3)=NO2)CN1C(=O)[C@@H](NC(=O)Cc1cc(=O)[nH]c(=O)[nH]1)C(C)(C)C)C(=O)C(=O)NC1CC1` [Compound 553]: at HCV NS3 protease domain, the Ki lay within 0.1 to 0.5 µM.

Take `CCC[C@H](NC(=O)[C@@H]1C[C@]2(CC(c3ccc(CC)o3)=NO2)CN1C(=O)[C@@H](NC(=O)CC1CCOCC1)C(C)(C)C)C(=O)C(=O)NC1CC1` [Compound 554]: the Ki on HCV NS3 protease domain is over 0.5 µM.

Turning to `CCC[C@H](NC(=O)[C@@H]1C[C@]2(CC(c3ccc(F)c(C)c3)=NO2)CN1C(=O)[C@@H](NC(=O)O[C@H]1CCOC1)C(C)(C)C)C(=O)C(=O)NC1CC1` [Compound 555], the Ki on HCV NS3 protease domain lay within 0.1 to 0.5 µM.

On to `CCC[C@H](NC(=O)[C@@H]1C[C@]2(CC(c3cccc(Cl)c3)=NO2)CN1C(=O)[C@@H](NC(=O)C1CC=CCC1C(=O)OC)C(C)(C)C)C(=O)C(=O)NC1CC1` (some centres unmarked) [Compound 557], for which the Ki at HCV NS3 protease domain was in the range of 0.1 to 0.5 µM.

For `CCC[C@H](NC(=O)[C@@H]1C[C@]2(CC(c3cccc(Cl)c3)=NO2)CN1C(=O)[C@@H](NC(=O)Nc1ccccc1)C(C)(C)C)C(=O)C(=O)NC1CC1` [Compound 558], on HCV NS3 protease domain, the Ki lay in the range of 0.1 to 0.5 µM.

For `CCC[C@H](NC(=O)[C@@H]1C[C@]2(CC(c3cccc(C(F)(F)F)c3)=NO2)CN1C(=O)[C@@H](NC(=O)O[C@H]1CCOC1)C(C)(C)C)C(=O)C(=O)NC1CC1` [Compound 560], at HCV NS3 protease domain, the Ki is 0.1 to 0.5 µM.

In the case of `CCC[C@H](NC(=O)[C@@H]1C[C@]2(CC(c3cccc(Cl)c3)=NO2)CN1C(=O)[C@@H](NC(=O)OCc1cc(F)ccc1F)C(C)(C)C)C(=O)C(=O)NC1CC1` [Compound 561], the Ki at HCV NS3 protease domain was in the range of 0.1 to 0.5 µM.

Regarding `CCC[C@H](NC(=O)[C@@H]1C[C@]2(CC(c3cccc(Cl)c3)=NO2)CN1C(=O)[C@@H](NC(=O)OCc1cccnc1)C(C)(C)C)C(=O)C(=O)NC1CC1` [Compound 563], the Ki on HCV NS3 protease domain is 0.1 to 0.5 µM.

On to `CCC[C@H](NC(=O)[C@@H]1C[C@]2(CC(c3ccc4c(c3)OCO4)=NO2)CN1C(=O)[C@@H](NC(C)=O)C(C)(C)C)C(=O)C(=O)NC1CC1` [Compound 570], for which the Ki on HCV NS3 protease domain lay within 0.1 to 0.5 µM.

On to `CCC[C@H](NC(=O)[C@@H]1C[C@]2(CC(c3cccc(Cl)c3)=NO2)CN1C(=O)[C@@H](NC(=O)c1ccnn1-c1ccccc1)C(C)(C)C)C(=O)C(=O)NC1CC1` [Compound 571], for which the Ki at HCV NS3 protease domain lay in the range of 0.1 to 0.5 µM.

As for `CCC[C@H](NC(=O)[C@@H]1C[C@]2(CC(c3cc(C)c(OC)c(C)c3)=NO2)CN1C(=O)[C@@H](NC(=O)CC1CCOCC1)C(C)(C)C)C(=O)C(=O)NC1CC1` [Compound 572], the Ki at HCV NS3 protease domain lay within 0.1 to 0.5 µM.

On to `CCC[C@H](NC(=O)[C@@H]1C[C@]2(CC(c3cccc(Cl)c3)=NO2)CN1C(=O)[C@@H](NC(=O)Nc1cccnc1)C(C)(C)C)C(=O)C(=O)NC1CC1` [Compound 576], for which the Ki at HCV NS3 protease domain fell in the range of 0.1 to 0.5 µM.

On to `CC(C)C[C@H](NC(=O)[C@@H]1C[C@]2(CC(c3cccc(Cl)c3)=NO2)CN1C(=O)[C@@H](NC(=O)CC1CCCCC1)C(C)(C)C)C(=O)C(=O)NC1CC1` [Compound 579], for which the Ki on HCV NS3 protease domain is 0.1 to 0.5 µM.

As to `CCC[C@H](NC(=O)[C@@H]1C[C@]2(CC(c3ccccc3)=NO2)CN1C(=O)[C@@H](NC(=O)NCC)C(C)(C)C)C(=O)C(=O)NC1CC1` [Compound 580], the Ki at HCV NS3 protease domain lay in the range of 0.1 to 0.5 µM.

With `CCC[C@H](NC(=O)[C@@H]1C[C@]2(CC(c3cccc(Cl)c3)=NO2)CN1C(=O)[C@@H](NC(=O)OCCc1cccs1)C(C)(C)C)C(=O)C(=O)NC1CC1` [Compound 582], at HCV NS3 protease domain, the Ki lay in the range of 0.1 to 0.5 µM.

Turning to `CCC[C@H](NC(=O)[C@@H]1C[C@]2(CC(c3cccc(Cl)c3)=NO2)CN1C(=O)[C@@H](NC(=O)NCc1ccccc1)C(C)(C)C)C(=O)C(=O)NC1CC1` [Compound 583], the Ki at HCV NS3 protease domain fell in the range of 0.1 to 0.5 µM.

`CCC[C@H](NC(=O)[C@@H]1C[C@]2(CC(c3ccccc3)=NO2)CN1C(=O)c1ccc[nH]1)C(=O)C(=O)NC1CC1` [Compound 584]: the Ki at HCV NS3 protease domain is over 0.5 µM.

Turning to `CCC[C@H](NC(=O)[C@@H]1C[C@]2(CC(c3cccc(Cl)c3)=NO2)CN1C(=O)[C@@H](NC(=O)Cc1cccc(OC(F)(F)F)c1)C(C)(C)C)C(=O)C(=O)NC1CC1` [Compound 585], the Ki on HCV NS3 protease domain lay in the range of 0.1 to 0.5 µM.

The record behind these values is US7964624B1, “Inhibitors of serine proteases” (priority 2005, dated 2011).
